# Assay results: patent US20220202872A1, “METHOD FOR GENERATING A THREE-DIMENSIONAL NEUROMUSCULAR ORGANOID IN VITRO” (MAX-DELBRÜCK-CENTRUM FÜR MOLEKULARE MEDIZIN IN DER …, priority 2020, published 2022)
# “Also recorded” adds a separate entry of the source.
# Tests used:
# NMOs [1] = assay: Microelectrode array (MEA) recording of whole organoids; assay type: cell-based, human; conditions: for local (single electrode) firings / synchronous network activity (paired electrode spikes) / rhythmic, central pattern generator-like activity: NMDA and 5-HT applied together; for local (single electrode) firings / synchronous network activity (paired electrode spikes): day 50, FIG. 6G legend: 50 uM NMDA/40 uM 5-HT; for electrical activity triggered by NMDA/5-HT cocktail: cocktail of NMDA (10 uM) and 5-HT (40 uM), applied together; for suppression of electrical activity: APV 50 uM and CNQX 40 uM applied together, glutamate receptor inhibitors
# NMOs [2] = assay: Contraction analysis of neuromuscular organoids before and after curare; assay type: cell-based, human; conditions: curare 10 uM; before vs after treatment
# Protocol: To investigate the functionality of NMJs, the contractile activity of NMOs was measured before and after treatment with Curare (10 uM), a blocker of AChRs.
# Video segments of equal length were recorded using a bright-field microscope (DMI1, Leica) in 3 different regions of the same organoid using 20× zoom. To quantify muscle contractions, each movie was analyzed separately where each visible contraction was counted and then averaged for the whole organoid.
# To analyze and map organoid muscular contraction, bright field time series images were automatically thresholded using ImageJ software to identify organoid border. A binary stack was created and contractile regions were visually identified. Regions of interest were defined and variations of organoid area (in pixel), used as a proxy of physical contraction, were plotted over the time series.
compound,measurement,setting,value
N[C@@H](CCC(=O)O)C(=O)O [glutamate],increase of spontaneous electrical activity,"NMOs [1]; acute glutamate 50 uM, day 30 and day 50 organoids",approximately 12 fold
CC(=O)OCC[N+](C)(C)C [acetylcholine],increase of electrical activity,"NMOs [1]; acetylcholine 10 uM stimulation, day 50 NMOs",approximately 10 fold
NC1=N[C@H](O)[C@H]2[C@H]3O[C@]4(O)O[C@@H]([C@@H](O)[C@@]2(N1)[C@@H]4O)[C@]3(O)CO [tetrodotoxin],suppression of NMDA/5-HT-triggered activity,NMOs [1],reversibly suppressed
CN[C@H](CC(=O)O)C(=O)O [NMDA],local (single electrode) firings,NMOs [1],increased single firings; also recorded: notable increase
same,synchronous network activity (paired electrode spikes),NMOs [1],increase in paired electrode spikes; also recorded: dramatic increase
same,"rhythmic, central pattern generator-like activity",NMOs [1]; day 50 NMOs,central pattern generator-like activity; also recorded: became rhythmic; also recorded: produced rhythmic bursts of electrical activity
same,electrical activity triggered by NMDA/5-HT cocktail,NMOs [1],instantaneously triggered strong activity
curare,block of acetylcholine-stimulated electrical activity,"NMOs [1]; curare 10 uM added after acetylcholine 10 uM, day 50 NMOs",rapidly and reversibly blocked
same,contraction of the skeletal muscles (contractile activity of NMOs),NMOs [2],blocked the contraction; also recorded: organoid relaxation
"NCCc1c[nH]c2ccc(O)cc12 [5-HT, Serotonin]",local (single electrode) firings,NMOs [1],increased single firings; also recorded: notable increase
same,synchronous network activity (paired electrode spikes),NMOs [1],increase in paired electrode spikes; also recorded: dramatic increase
same,"rhythmic, central pattern generator-like activity",NMOs [1]; day 50 NMOs,central pattern generator-like activity; also recorded: became rhythmic; also recorded: produced rhythmic bursts of electrical activity
same,electrical activity triggered by NMDA/5-HT cocktail,NMOs [1],instantaneously triggered strong activity
N[C@@H](CCCP(=O)(O)O)C(=O)O [APV],suppression of electrical activity,NMOs [1],reversibly suppressed nearly all electrical activity
N#Cc1cc2[nH]c(=O)c(=O)[nH]c2cc1[N+](=O)[O-] [CNQX],suppression of electrical activity,NMOs [1],reversibly suppressed nearly all electrical activity
